The values that follow come from patent US20140051679A1, “KINASE INHIBITORS AND METHOD OF TREATING CANCER WITH SAME” (UNIVERISTY HEALTH NETWORKS, priority 2011, published 2014).

SMILES strings stand for the structures.

The target in one assay is T1, human TTK (Homo sapiens, UniProt P33981).
T1 construct: amino terminal GST fusion of full length human TTK; purchased Invitrogen
T1 sequence (P33981 1-857): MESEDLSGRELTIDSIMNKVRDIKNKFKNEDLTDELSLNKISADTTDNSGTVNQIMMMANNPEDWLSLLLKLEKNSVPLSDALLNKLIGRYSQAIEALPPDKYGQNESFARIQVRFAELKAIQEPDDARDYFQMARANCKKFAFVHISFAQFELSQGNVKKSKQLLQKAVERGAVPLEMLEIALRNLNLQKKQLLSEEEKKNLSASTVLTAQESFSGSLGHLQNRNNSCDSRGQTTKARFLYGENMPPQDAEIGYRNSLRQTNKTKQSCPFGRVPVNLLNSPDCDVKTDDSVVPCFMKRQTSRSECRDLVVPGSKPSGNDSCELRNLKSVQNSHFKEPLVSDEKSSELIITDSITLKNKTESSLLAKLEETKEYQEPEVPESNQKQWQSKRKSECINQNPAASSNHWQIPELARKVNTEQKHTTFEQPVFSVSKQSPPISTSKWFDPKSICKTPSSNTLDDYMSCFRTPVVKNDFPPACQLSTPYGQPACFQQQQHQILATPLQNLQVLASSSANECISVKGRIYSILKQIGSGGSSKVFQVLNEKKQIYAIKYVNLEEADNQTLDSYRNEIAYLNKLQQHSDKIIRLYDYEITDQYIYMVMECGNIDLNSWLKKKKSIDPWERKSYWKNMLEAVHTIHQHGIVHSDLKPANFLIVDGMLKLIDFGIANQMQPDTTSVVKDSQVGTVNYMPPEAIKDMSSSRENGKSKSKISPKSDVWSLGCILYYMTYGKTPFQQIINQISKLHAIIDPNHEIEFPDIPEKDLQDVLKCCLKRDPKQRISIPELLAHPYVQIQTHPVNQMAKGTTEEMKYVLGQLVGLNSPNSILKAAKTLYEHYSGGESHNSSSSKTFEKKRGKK
Nature of the assay: TTK inhibition assay (indirect ELISA). In kind it is biochemical. The conditions noted are these: GST-TTK 0.68 nM, 16 μM ATP; read-out: IC50 Ranges TTK. On the technique in general: In an ELISA, binding on a coated surface is turned into a signal by an enzyme label.

The target in a further assay is T2, human PLK4 (Homo sapiens, UniProt O00444).
T2 construct: amino terminal GST fusion of residues 1-391 of human PLK4; made in house; host or cells: E. coli
T2 sequence (O00444 1-391): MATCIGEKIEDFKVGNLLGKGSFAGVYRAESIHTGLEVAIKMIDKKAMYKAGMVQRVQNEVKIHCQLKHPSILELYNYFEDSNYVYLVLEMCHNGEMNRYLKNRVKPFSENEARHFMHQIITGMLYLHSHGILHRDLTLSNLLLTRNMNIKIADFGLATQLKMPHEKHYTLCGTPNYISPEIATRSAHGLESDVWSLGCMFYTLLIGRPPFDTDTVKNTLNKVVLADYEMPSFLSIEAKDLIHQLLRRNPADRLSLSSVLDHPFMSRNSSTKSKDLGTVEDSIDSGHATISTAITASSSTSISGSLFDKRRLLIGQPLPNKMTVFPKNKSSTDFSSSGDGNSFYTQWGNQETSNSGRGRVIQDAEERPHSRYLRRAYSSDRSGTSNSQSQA
Nature of the assay: PLK4 inhibition assay (indirect ELISA). In kind it is biochemical. To be noted: GST-PLK4 4 nM, 15 μM ATP; read-out: IC50 Ranges PLK4. The method, boiled down:
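Dephosphorylated GST-tagged human PLK4 (residues 1-391, E. coli), 4 nM, preincubated 15 min with compound, then reacted 30 min with 15 μM ATP on MBP-coated plates (50 mM HEPES pH 7.5, 10 mM MgCl2, 0.01% Brij 35). Phospho-MBP detected by antibody ELISA at 450 nm. Tested at 10 μM or 10-point titrations; IC50 from 4-parameter logistic fit.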

Assay [1] relates to MDA-MB-231 breast cancer cells. Nature of the assay: Cell growth inhibition, Sulforhodamine B assay, MDA-MB-231. In kind it is cell-based. To be noted: Homo sapiens, 120 h, 5 days culture, SRB assay, read-out: Cell Line GI50 Range MDA-MB-231.
For assay [2], the system named is MDA-MB-468 breast cancer cells. In words: Cell growth inhibition, Sulforhodamine B assay, MDA-MB-468. In kind it is cell-based. The conditions noted are these: Homo sapiens, 120 h, 5 days culture, SRB assay, read-out: Cell Line GI50 Range MDA-MB-468.
Assay [3] concerns HCT116 colon cancer cells. In words: Cell growth inhibition, Sulforhodamine B assay, HCT116. In kind it is cell-based. To be noted: Homo sapiens, HCT-116, 120 h, 5 days culture, SRB assay, read-out: Cell Line GI50 Range HCT116. A general note: Sulforhodamine B stains cellular protein and so reports cell mass.
Experimental: Breast cancer cells (MDA-MB-231, MDA-MB-468), colon cancer cells (HCT116, HT29) and ovarian cancer cells (PA-1, OVCAR-3) were seeded (1000 to 4000 in 80 μl per well depending on the cell growth rate) into 96 well plates 24 hours before compound overlay. Compounds were prepared as 10 mM stock solutions in 100% DMSO which were diluted with DMEM (Dulbecco's Modified Eagle's Medium) cell growth Medium (Invitrogen, Burlington, ON, Canada) containing 10% FBS (Fetal Bovine Serum) to concentrations ranging from 50 nM to 250 μM. Aliquots (20 μl) from each concentration were overlaid to 80 μl of the pre-seeded cells in the 96 well plates to make final concentrations of 10 nM to 50 μM. The cells were cultured for 5 days before the Sulforhodamine B assay (SRB) was performed to determine the compound's cell growth inhibition activity.
Sulforhodamine B (purchased from Sigma, Oakville, ON, Canada) is a water-soluble dye that binds to the basic amino acids of the cellular proteins. Thus, colorimetric measurement of the bound dye provides an estimate of the total protein mass that is related to the cell number. the cells are fixed in situ by gently aspirating off the culture media and adding 50 μl ice cold 10% Trichloroacetic Acid (TCA) per well and incubate at 4° C. for 30-60 min, The plates are washed with water five times and allowed to air dry for 5 min. Addition of 50 μl 0.4% (w/v) SRB solution in 1% (v/v) acetic acid to each well and incubatation for 30 min at RT completes the staining reaction. Following staining, plates are washed four times with 1% acetic acid to remove unbound dye and then allowed to air dry for 5 min. The stain is solubilized with 100 μl of 10 mM Tris pH 10.5 per well. Absorbance is read at 570 nm.
The percentage (%) of relative growth inhibition was calculated by comparing to DMSO treated only cells (100%). […] The GI50 was calculated using GraphPad PRISM software (GraphPad Software, Inc., San Diego, Calif., USA).
Another assay concerns HT29 colon cancer cells. Nature of the assay: Cell growth inhibition, Sulforhodamine B assay, HT29. In kind it is cell-based. The conditions noted are these: Homo sapiens, HT-29, 120 h, 5 days culture, SRB assay, read-out: Cell Line GI50 Range HT29.
Assay [4] concerns OVCAR-3 ovarian cancer cells. Nature of the assay: Cell growth inhibition, Sulforhodamine B assay, OVCAR-3. In kind it is cell-based. The conditions noted are these: Homo sapiens, 120 h, 5 days culture, SRB assay, read-out: Cell Line GI50 Range OVCAR-3.
The next assay addresses T3, Aurora B (Homo sapiens, UniProt Q96GD4).
T3 construct: purchased Invitrogen PV3970
Nature of the assay: Aurora B inhibition assay (Z-Lyte). The conditions noted are these: 28 nM Aurora B, 128 μM ATP; read-out: IC50 Ranges Aurora B. In kind it is biochemical. The method, then: Aurora B inhibition was determined using the Z-Lyte assay kit from Invitrogen. The assay was performed using the recommended manufacturer's instructions with 128 μM ATP and 28 nM Aurora B (Invitrogen cat #PV3970). The % inhibition values were determined according to the manufacturer's directions and IC50 values were obtained using a non-linear 4 point logistic curve fit (XLfit4, IDBS)

T3 sequence (Q96GD4 whole entry): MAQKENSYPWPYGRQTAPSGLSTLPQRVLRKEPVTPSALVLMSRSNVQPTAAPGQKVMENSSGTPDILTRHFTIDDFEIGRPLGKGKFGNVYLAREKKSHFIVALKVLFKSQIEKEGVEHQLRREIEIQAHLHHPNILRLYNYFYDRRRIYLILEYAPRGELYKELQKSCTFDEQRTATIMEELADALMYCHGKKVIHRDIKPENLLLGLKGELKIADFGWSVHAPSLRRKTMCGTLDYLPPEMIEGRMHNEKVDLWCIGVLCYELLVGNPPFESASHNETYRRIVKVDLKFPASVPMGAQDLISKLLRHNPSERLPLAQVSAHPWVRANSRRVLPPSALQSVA

As usually defined, the IC50 is the concentration at which inhibition is half-maximal. As usually defined, the GI50 is the concentration giving 50% growth inhibition. On to `CN1CCC(Oc2ccc(-c3n[nH]c4ccc(C(=O)N[C@@H]5CCCc6ccccc65)cc34)cc2)CC1` [Example A26, (R)-3-(4-((1-methylpiperidin-4-yl)oxy)phenyl)-N-(1,2,3,4-tetrahydronaphthalen-1-yl)-1H-indazole-5-carboxamide], for which the IC50 at human TTK and at human PLK4 was ≤ 5 µM each time. Besides, the 50% growth inhibitory concentration (GI50) (in assay [1]; in assay [2]; in assay [3]; in the assay with HT29 colon cancer cells; in assay [4]) was ≤ 5 µM throughout.
Consider `C[C@H](NC(=O)c1ccc2[nH]nc(-c3ccc(N4CCOCC4)cc3)c2c1)C1CCCCC1` [Example A40, (S)—N-(1-cyclohexylethyl)-3-(4-morpholinophenyl)-1H-indazole-5-carboxamide], for which the half-maximal inhibitory concentration (IC50) on human TTK and at human PLK4 was ≤ 5 µM throughout. The GI50 (in assay [1]; in assay [2]; in assay [3]; with HT29 colon cancer cells; in assay [4]) was ≤ 5 µM throughout.
For the compound `C[C@@H](NC(=O)c1ccc2[nH]nc(-c3ccc(N4CCOCC4)cc3)c2c1)C1CCCCC1` [Example A48, (R)—N-(1-cyclohexylethyl)-3-(4-morpholinophenyl)-1H-indazole-5-carboxamide], the half-inhibitory concentration (IC50) at human TTK and at human PLK4 was ≤ 5 µM in each case. For the same compound, the GI50 in assay [1] is ≤ 5 µM; in assay [2], ≤ 5 µM; in assay [3], ≤ 5 µM; in the assay with HT29 colon cancer cells it was ≤ 5 µM; in assay [4], 5 to 20 µM.
Consider `C[C@@H](NC(=O)c1ccc2[nH]nc(-c3ccc(N4CCOCC4)cc3)c2c1)c1cccs1` [Example A53, (R)-3-(4-morpholinophenyl)-N-(1-(thiophen-2-yl)ethyl)-1H-indazole-5-carboxamide], for which the IC50 at human TTK and on human PLK4 was ≤ 5 µM throughout. Moreover, the GI50 in assay [1] was ≤ 5 µM; in assay [2] it was ≤ 5 µM; in assay [3], ≤ 5 µM; in the assay on HT29 colon cancer cells it was ≤ 5 µM; in assay [4] it was 5 to 20 µM.
As to `CN1CCC(Oc2ccc(-c3n[nH]c4ccc(NC(=O)Nc5ccccc5F)cc34)cc2)CC1` [Example A56, 1-(2-fluorophenyl)-3-(3-(4-((1-methylpiperidin-4-yl)oxy)phenyl)-1H-indazol-5-yl)urea], the IC50 at human TTK and on human PLK4 was ≤ 5 µM each time. In addition, the 50% growth inhibitory concentration (GI50) was ≤ 5 µM in assay [1]; ≤ 5 µM in assay [2]; ≤ 5 µM in assay [3]; ≤ 5 µM in the assay with HT29 colon cancer cells; 5 to 20 µM in assay [4].
In the case of `Cc1cc(-c2n[nH]c3ccc(NC(=O)C(c4ccsc4)N4CCCC4)cc23)ccc1N1CCOCC1` (stereo not drawn) [Example A59, N-(3-(3-methyl-4-morpholinophenyl)-1H-indazol-5-yl)-2-(pyrrolidin-1-yl)-2-(thiophen-3-yl)acetamide], the IC50 on human TTK and at human PLK4 was ≤ 5 µM each time. The GI50 in assay [1] is ≤ 5 µM; in assay [2], ≤ 5 µM; in assay [3], ≤ 5 µM; in the assay on HT29 colon cancer cells, ≤ 5 µM; in assay [4] it was 5 to 20 µM.
Regarding `O=C(Nc1ccc2[nH]nc(-c3ccc(N4CCOCC4)c(F)c3)c2c1)C(c1ccsc1)N1CCCC1` (stereo not drawn) [Example A60, N-(3-(3-fluoro-4-morpholinophenyl)-1H-indazol-5-yl)-2-(pyrrolidin-1-yl)-2-(thiophen-3-yl)acetamide], the half-maximal inhibitory concentration (IC50) at human TTK and at human PLK4 was ≤ 5 µM each time. Moreover, the concentration for 50% growth inhibition (GI50) in assay [1] is ≤ 5 µM; in assay [2] it was ≤ 5 µM; in assay [3], ≤ 5 µM; in the assay on HT29 colon cancer cells it was ≤ 5 µM; in assay [4], 5 to 20 µM.
Consider `O=C(NC(c1ccccc1)C1CC1)c1ccc2[nH]nc(-c3cccc(N4CCOCC4)c3)c2c1` (stereo not drawn) [Example A61, N-(cyclopropyl(phenyl)methyl)-3-(3-morpholinophenyl)-1H-indazole-5-carboxamide], for which the 50% inhibitory concentration (IC50) at human TTK and at human PLK4 was ≤ 5 µM each time. Moreover, the GI50 was 5 to 20 µM in assay [1]; 5 to 20 µM in assay [2]; ≤ 5 µM in assay [3]; ≤ 5 µM with HT29 colon cancer cells; 5 to 20 µM in assay [4].
In the case of `CN1CCC(Oc2ccc(-c3n[nH]c4ccc(NC(=O)Nc5ccccc5Cl)cc34)cc2)CC1` [Example A62, 1-(2-chlorophenyl)-3-(3-(4-((1-methylpiperidin-4-yl)oxy)phenyl)-1H-indazol-5-yl)urea], the 50% inhibitory concentration (IC50) at human TTK and on human PLK4 was ≤ 5 µM in each case. In addition, the GI50 (in assay [1]; in assay [2]; in assay [3]; in the assay with HT29 colon cancer cells; in assay [4]) was ≤ 5 µM in each case.
For the compound `Cc1cc(-c2n[nH]c3ccc(C(=O)NC(c4ccccc4)C4CC4)cc23)ccc1N1CCOCC1` (stereo not drawn) [Example A64, N-(cyclopropyl(phenyl)methyl)-3-(3-methyl-4-morpholinophenyl)-1H-indazole-5-carboxamide], the half-inhibitory concentration (IC50) on human TTK and at human PLK4 was ≤ 5 µM in each case. The concentration for 50% growth inhibition (GI50) in assay [1] was 5 to 20 µM; in assay [2], 5 to 20 µM; in assay [3] it was ≤ 5 µM; in the assay on HT29 colon cancer cells, ≤ 5 µM; in assay [4] it was 20 to 50 µM.
For the compound `O=C(NC(c1ccccc1)C1CC1)c1ccc2[nH]nc(-c3ccc(N4CCOCC4)c(F)c3)c2c1` (stereo not drawn) [Example A65, N-(cyclopropyl(phenyl)methyl)-3-(3-fluoro-4-morpholinophenyl)-1H-indazole-5-carboxamide], the half-maximal inhibitory concentration (IC50) on human TTK and on human PLK4 was ≤ 5 µM each time. Further, the concentration for 50% growth inhibition (GI50) in assay [1] was ≤ 5 µM; in assay [2], ≤ 5 µM; in assay [3] it was ≤ 5 µM; with HT29 colon cancer cells, ≤ 5 µM; in assay [4] it was 5 to 20 µM.
Regarding `O=C(Nc1ccc2[nH]nc(-c3ccc(NC4CCCC4)cc3)c2c1)C(c1ccsc1)N1CCCC1` (stereo not drawn) [Example A70, N-(3-(4-(cyclopentylamino)phenyl)-1H-indazol-5-yl)-2-(pyrrolidin-1-yl)-2-(thiophen-3-yl)acetamide], the IC50 at human TTK and on human PLK4 was ≤ 5 µM in each case. Also, the 50% growth inhibitory concentration (GI50) (in assay [2]; in assay [3]; in the assay with HT29 colon cancer cells; in assay [4]) was ≤ 5 µM each time.
With `CN1CCC(Oc2ccc(-c3n[nH]c4ccc(NC(=O)Nc5c(Cl)cccc5Cl)cc34)cc2)CC1` [Example A76, 1-(2,6-dichlorophenyl)-3-(3-(4-((1-methylpiperidin-4-yl)oxy)phenyl)-1H-indazol-5-yl)urea], the concentration for half-maximal inhibition (IC50) on human TTK, on human PLK4 and at Aurora B was ≤ 5 µM throughout. Further, the 50% growth inhibitory concentration (GI50) in assay [2] is ≤ 5 µM; in assay [3] it was ≤ 5 µM; in the assay on HT29 colon cancer cells it was ≤ 5 µM; in assay [4], 5 to 20 µM.
